Patent publication US20110009335A1, “Anticancer Treatments” (priority 2008, published 2011)
Starred links: 1 amine or outer side, 2 acyl side, 3 side chain; linkers in the order of their positions; H or OH if unused. Positions of bridges follow the written chain, without caps; N, C: chain ends. Non-standard residues stand in square brackets, D forms with d. Residues, ends and D or L forms follow the SMILES beside them. *: point of attachment. X1 = CC[C@H](C)[C@@H](N[*:1])[C@@H](O)CC(=O)O[C@H](C(=O)[C@H](C)C(=O)[*:2])C(C)C; NMeY = CN[C@@H](Cc1ccc(O)cc1)C(=O)O; dNMeL = CN[C@H](CC(C)C)C(=O)O; Pyruvoyl = CC(=O)C(=O)*

Columns and labels:
[1] = tested on: CAKI-1 human renal tumor xenograft; experiment: Aplidine with sunitinib, CAKI-1 xenograft in athymic nude mice (Example 2); type: in vivo; settings: doses and schedules tested
Procedure: (§1) Female athymic nude mice (Harlan Sprague Dawley, Madison, Wis.) were utilized for all experiments. Mice were implanted with tumor fragments or a cell suspension when mice were 5 weeks of age. Animals were housed in ventilated rack caging, 5 mice per cage, with food and water ad libitum. The mice were acclimated for 1 week prior to being implanted with tumor fragments or cell suspensions.
Cells from in vitro passage 4-20 were implanted SC into study mice: 5×10^6 cells/mouse in 0.2 ml 50% Matrigel/50% medium without antibiotics or serum, using a 23 G needle and 1 cc syringe. Bacterial cultures were performed on aliquots of the cells prepared for implantation.
(§2) Tumor measurements were determined as disclosed in Example 1.
Body weights were recorded on treatment days and when tumor sizes were measured. In those days wherein the two drugs were administered the same day, the combination therapy groups were treated by co-administering the two drugs at the same time, with no attempt to sequence the treatments. […]
(§3) Tumor size measurements were recorded twice weekly from the treatment initiation until the termination of the study.
(§4) Mean, standard deviation and standard error of the mean were determined for tumor volume for all animal groups at all assessments. […]

[2] = tested on: MRI-H-121 human renal tumor xenograft; experiment: Aplidine with sunitinib, MRI-H-121 xenograft in athymic nude mice (Example 2); type: in vivo; settings: doses and schedules tested
Procedure: as §1, §2
(§5) Body weights were recorded on treatment days and when tumor sizes were measured. In those days wherein the two drugs were administered the same day, the combination therapy groups were treated by co-administering the two drugs at the same time, with no attempt to sequence the treatments.
(§6) Aplidine was provided in the form of vials of lyophilized aplidine powder which was reconstituted in Cremophor EL/ethanol/water (CEW) 15/15/70 to a concentration of 0.5 mg/ml. The aplidine solution in CEW was diluted in 0.9% Saline to the dosing formulation concentrations, being the final proportion of CEW of 0.18/0.18/0.84. […]
as §3, §4

[3] = tested on: A498 human renal tumor xenograft; experiment: Aplidine with sunitinib, A498 xenograft in athymic nude mice (Example 2); type: in vivo; settings: doses tested; sunitinib 40 mg/kg
Procedure: as §1, §2, §5, §6, §3, §4

[4] = tested on: CAKI-1 human renal tumor xenograft; experiment: Aplidine with temsirolimus, CAKI-1 xenograft in athymic nude mice (Example 4); type: in vivo; settings: for % Inhibition G2: aplidine 0.06 mg/kg/day; for antitumor activity as single agent (monotherapy): temsirolimus 10 and 20 mg/kg/day; for % Inhibition G4: temsirolimus 10 mg/kg/day; for % Inhibition G3: temsirolimus 20 mg/kg/day
Procedure: Female athymic nude mice (Harlan Sprague Dawley, Madison, Wis.) were utilized for all experiments. Mice were implanted with a cell suspension when mice were 6-8 weeks of age. Animals were housed in ventilated rack caging with food and water ad libitum. The mice were acclimated for at least 5 days prior to tumor implantation. […] The tumor model used in this study was CAKI-1, which was implanted in the animals as disclosed in Example 2.
Tumor measurements were determined as disclosed in Example 1. When tumor growth was within an average size range of 140±34 mg (mean±SD), mice were randomized into the treatment and control groups based on tumor weight by using LabCat® In Life module V 8.0 SP1 tumor tracking and measurement software.
The treatment of CAKI-1-tumor-bearing mice was initiated on DPI (Day Post Implantation) 21. Body weights were recorded on treatment days and when tumor sizes were measured. In those days wherein the two drugs were administered the same day, the combination therapy groups were treated by co-administering the two drugs at the same time, with no attempt to sequence the treatments.
Aplidine was provided in the form of vials of lyophilized aplidine powder which was reconstituted in Cremophor EL/ethanol/water (CEW) 15/15/70 to a concentration of 0.5 mg/ml. The aplidine solution in CEW was diluted in 0.9% Saline to the dosing formulation concentrations, being the final proportion of CEW of 0.18/0.18/0.84.
Temsirolimus was provided in the form of vials containing a non-aqueous, ethanolic, sterile solution of temsirolimus, 25 mg/ml. […] Then, the solution was further diluted in 0.9% Saline to the dosing formulation concentrations.
Tumor size measurements were recorded twice weekly from the treatment initiation until the termination of the study. Tumor growth inhibition was assessed comparing the mean tumor weight between the two agents in combination (aplidine and temsirolimus) against temsirolimus mean tumor weight at the different concentrations assayed.
Mean, standard deviation and standard error of the mean were determined for tumor volume for all animal groups at all assessments. Student's t test was performed on tumor volumes at each measurement day, including at the end of the study, to determine whether there were any statistically significant differences between combination treatment groups and single monotherapy treatment groups.
The definition and criteria for the evaluation of potentiation and the degree of additivity for the combination therapy were the same as those disclosed in Example 1.

[5] = tested on: AML and ALL samples from pediatric patients; settings: de novo or relapsed ALL and AML; cited from earlier work
ALL-MOLT4 cells = settings: mechanistic studies; cited from earlier work
[6] = G2: aplidine 0.060 mg/kg/day IP
[7] = G3: temsirolimus 20 mg/kg/day IP
[8] = G4: temsirolimus 10 mg/kg/day IP

CC[C@H](C)[C@H]1NC(=O)[C@@H](NC(=O)[C@@H](CC(C)C)N(C)C(=O)[C@@H]2CCCN2C(=O)C(C)=O)[C@@H](C)OC(=O)[C@H](Cc2ccc(OC)cc2)N(C)C(=O)[C@@H]2CCCN2C(=O)[C@H](CC(C)C)NC(=O)[C@@H](C)C(=O)[C@H](C(C)C)OC(=O)C[C@@H]1O [aplidine, dehydrodidemnin B] (Pyruvoyl-P[dNMeL]T[X1]LP[NMeY](Me); ester 3-C)
antitumor activity as single agent (monotherapy) [1]: inactive
antitumor activity as single agent (monotherapy) [2]: refractory
antitumor activity as single agent (monotherapy) [3]: no effect
% T/C on day 21 [4, 6]: 98.2%
% T/C on day 24 [4, 6]: 94.6%
% T/C on day 27 [4, 6]: 75.6%
% T/C on day 30 [4, 6]: 66.0%
% T/C on day 34 [4, 6]: 81.0%
% T/C on day 38 [4, 6]: 91.1%
% T/C on day 42 [4, 6]: 84.1%
% T/C on day 45 [4, 6]: 80.7%
% T/C on day 48 [4, 6]: 80.1%
% T/C on day 56 [4, 6]: 89.8%
% T/C on day 58 [4, 6]: 89.9%
% Inhibition G2 ([4]; day 21): 1.8%
% Inhibition G2 ([4]; day 24): 5.4%
% Inhibition G2 ([4]; day 27): 24.4%
% Inhibition G2 ([4]; day 30): 34.0%
% Inhibition G2 ([4]; day 34): 19.0%
% Inhibition G2 ([4]; day 38): 8.9%
% Inhibition G2 ([4]; day 42): 15.9%
% Inhibition G2 ([4]; day 45): 19.3%
% Inhibition G2 ([4]; day 48): 19.9%
% Inhibition G2 ([4]; day 56): 10.2%
% Inhibition G2 ([4]; day 58): 10.1%
antitumor activity as single agent (monotherapy) [4]: inactive
concentration with in vitro cytotoxic activity [5]: 5 nM
VEGF secretion (ALL-MOLT4 cells): block VEGF secretion

CO[C@H]1C[C@@H]2CC[C@@H](C)[C@@](O)(O2)C(=O)C(=O)N2CCCC[C@H]2C(=O)O[C@H]([C@H](C)C[C@@H]2CC[C@@H](OC(=O)C(C)(CO)CO)[C@H](OC)C2)CC(=O)[C@H](C)/C=C(\C)[C@@H](O)[C@@H](OC)C(=O)[C@H](C)C[C@H](C)/C=C/C=C/C=C/1C [temsirolimus]
% T/C on day 21 [4, 7]: 98.3%
% T/C on day 24 [4, 7]: 76.7%
% T/C on day 27 [4, 7]: 75.3%
% T/C on day 30 [4, 7]: 47.0%
% T/C on day 34 [4, 7]: 42.2%
% T/C on day 38 [4, 7]: 48.0%
% T/C on day 42 [4, 7]: 51.9%
% T/C on day 45 [4, 7]: 58.9%
% T/C on day 48 [4, 7]: 63.6%
% T/C on day 56 [4, 7]: 75.3%
% T/C on day 58 [4, 7]: 78.8%
% T/C on day 21 [4, 8]: 95.7%
% T/C on day 24 [4, 8]: 69.9%
% T/C on day 27 [4, 8]: 81.3%
% T/C on day 30 [4, 8]: 53.2%
% T/C on day 34 [4, 8]: 50.4%
% T/C on day 38 [4, 8]: 51.1%
% T/C on day 42 [4, 8]: 60.3%
% T/C on day 45 [4, 8]: 66.7%
% T/C on day 48 [4, 8]: 66.2%
% T/C on day 56 [4, 8]: 73.4%
% T/C on day 58 [4, 8]: 76.5%
% Inhibition G4 ([4]; day 21): 4.3%
% Inhibition G4 ([4]; day 24): 30.1%
% Inhibition G4 ([4]; day 27): 18.7%
% Inhibition G4 ([4]; day 30): 46.8%
% Inhibition G4 ([4]; day 34): 49.6%
% Inhibition G4 ([4]; day 38): 48.9%
% Inhibition G4 ([4]; day 42): 39.7%
% Inhibition G4 ([4]; day 45): 33.3%
% Inhibition G4 ([4]; day 48): 33.8%
% Inhibition G4 ([4]; day 56): 26.6%
% Inhibition G4 ([4]; day 58): 23.5%
% Inhibition G3 ([4]; day 21): 1.7%
% Inhibition G3 ([4]; day 24): 23.3%
% Inhibition G3 ([4]; day 27): 24.7%
% Inhibition G3 ([4]; day 30): 53.0%
% Inhibition G3 ([4]; day 34): 57.8%
% Inhibition G3 ([4]; day 38): 52.0%
% Inhibition G3 ([4]; day 42): 48.1%
% Inhibition G3 ([4]; day 45): 41.1%
% Inhibition G3 ([4]; day 48): 36.4%
% Inhibition G3 ([4]; day 56): 24.7%
% Inhibition G3 ([4]; day 58): 21.2%
antitumor activity as single agent (monotherapy) [4]: did not meet the NCI criteria for activity
